# Test results: ChEMBL document CHEMBL3822405, “Binding mode prediction of aplysiatoxin, a potent agonist of protein kinase C, through molecular simulation and structure-activity study on simplified analogs of the receptor-recognition domain” (Bioorg Med Chem, 2016)
# Molecular target: Protein kinase C delta type (Mus musculus, UniProt P28867)
# Experiment: Inhibition of [3H]PDBu binding to PKCdelta C1B domain in CD-1 mouse brain cytosol incubated for 30 mins
# Protein kinase C delta type, sequence (P28867 whole entry, the tested form may be a part): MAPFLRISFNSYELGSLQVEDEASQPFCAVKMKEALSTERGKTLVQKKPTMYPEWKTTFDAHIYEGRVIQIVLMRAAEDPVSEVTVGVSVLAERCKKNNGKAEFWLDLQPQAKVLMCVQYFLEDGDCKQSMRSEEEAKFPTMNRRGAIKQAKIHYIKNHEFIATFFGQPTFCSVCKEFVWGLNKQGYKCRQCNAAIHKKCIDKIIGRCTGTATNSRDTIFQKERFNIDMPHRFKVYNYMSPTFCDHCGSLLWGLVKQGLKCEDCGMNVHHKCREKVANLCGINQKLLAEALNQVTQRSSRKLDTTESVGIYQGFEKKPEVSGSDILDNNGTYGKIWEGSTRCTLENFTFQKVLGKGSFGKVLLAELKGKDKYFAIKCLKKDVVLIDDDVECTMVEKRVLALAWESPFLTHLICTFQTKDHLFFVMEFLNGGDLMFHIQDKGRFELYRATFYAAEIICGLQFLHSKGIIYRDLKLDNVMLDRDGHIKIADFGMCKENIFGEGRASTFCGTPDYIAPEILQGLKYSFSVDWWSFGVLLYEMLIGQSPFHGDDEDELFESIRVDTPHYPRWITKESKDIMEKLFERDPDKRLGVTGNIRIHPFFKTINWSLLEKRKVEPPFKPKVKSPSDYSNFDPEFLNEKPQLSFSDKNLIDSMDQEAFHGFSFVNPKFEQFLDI
row,SMILES,Ki [µM]
1,CCCCCCCCOC(=O)C[C@@H](OC(=O)CCCCCCC)[C@@H](C)O,0.37
2,CCCCCCCCC[C@@H](OC(=O)CCCCCCC)[C@@H](C)O,> 20
3,CCCCCCCCOC(=O)C[C@@H](OCCCCCCCC)[C@@H](C)O,2.9
